Measured values: patent US7132261B2, “Orphan receptor” (Karo Bio AB, priority 1995, dated 2006)
Where two headings read alike, the source gives them in different places.

Legend:
[1] = target: T1, rERβ (Rattus norvegicus, UniProt Q62986); assay: Equilibrium binding saturation experiments with [125I]-E2, rERβ
T1 construct: Clone 29 protein consists of 485 amino acid residues; made in house; host or cells: rabbit reticulocyte lysate in vitro translation (Promega)
Excerpt: Equilibrium binding saturation experiments (Kd-determinations)

[2] = target: T2, clone 29 protein (rERβ) (Rattus norvegicus, UniProt Q62986); assay: Ligand competition studies against [3H]E2, clone 29 protein in reticulocyte lysate; assay type: binding; design: The open reading frame encodes a protein of 485 amino acid residues (counted from the first methionine); details: for efficient competition with [3H]E2 for binding: 5 nM [3H]E2, highest concentrations used (1000 fold excess); for times less effective as competitor (compared with unlabelled E2): 5 nM [3H]E2, 16 h at 8° C.
Excerpt: Bound and unbound steroids were separated with a dextran-coated charcoal assay (Ekman, P., Barrack, E. R., Greene, G. L., Jensen, E. V., & Walsh, P. C. (1983) J. Clin. Endocrinol Metab. 57, 166–176).

[3] = target: T2, clone 29 protein (rERβ); assay: Transactivation analysis in CHO-cells (ERE-ALP reporter, clone 29 expression vector); assay type: cell-based; design: The open reading frame encodes a protein of 485 amino acid residues (counted from the first methionine); expressed in transfected cells; host or cells: CHO-K1 cells transiently transfected with pCMV29 and pERE-ALP; details: for stimulation of transcriptional activity of clone 29 protein: highest concentration tested 1000 nM
Excerpt: The expression vector pCMV29 was constructed by inserting the 2.6 kb clone 29 fragment in the EcoRI site of the expression vector pCMV5 (Andersson, S., Davis, D.L., Dahlbäck, H., Jörnvall, H., & Russell, D.W. (1989) J. Biol. Chem. 264, 8222–8229). The pERE-ALP reporter construct contains a secreted form of the plancental alkaline phosphatase gene (Berger, J., Hauber, J., Hauber, R., Geiger, R., & Cullen, B.R. (1988) Gene 66 1–10) and the MMTV-LTR in which the glucocorticoid response elements were replaced by the vitellogenin promoter estrogen response element (ERE). The vector pCMV29 containing the clone 29 fragment was deposited with NCIMB, Ferguson Building, Craibstone Estate, Bucksburn, Aberdeen, Scotland, UK AB21 9YA in accordance with the Budapest Treaty on the International Recognition of the Deposit of Microorganisms for the Purposes of Patent Procedure on 26 May 2006, under accession No. NCIMB 41404. The deposit was named “Escherichia coli DH5 prat ER (CmV29)”. All restrictions on the availability to the public of the material deposited will be irrevocably removed upon the granting of a patent.
CHO-K1 cells were seeded in 12-well plates at approximately 1.7×10^5 cells per well in phenol-red free Ham F12 medium with 5% FCS (dextran-coated charcoal treated) and 2 mM Lglutamine. After 24 h the cells were transfected with 250 ng pERE-ALP vector and 50 ng pCMV29 using lipofectamine (Gibco) according to the manufacturer's instructions. After five hours of incubation the cells were washed and refed with 0.5 ml phenol-red free Coon's F-12 medium containing 5% serum substitute (SRC 3000, Tissue Culture Services Ltd., Botolph Claydon, Buckingham, UK) 2 mM Lglutamine and 50 μg/ml gentamicin plus hormones as indicated. After 48 h the medium was assayed for alkaline phosphatase (ALP) activity by a chemiluminescence assay. A 10 μl aliquot of the cell culture medium was mixed with 200 μl assay buffer (10 mM diethanolamine pH 10.0 1 mM MgCl2 and 0.5 mM CSPD (Tropix Inc. Boston, USA) ) and incubated for 20 min at 37° C. before measurement in a microplate luminometer (Luminoskan; Labsystems, Finland) with integral measurement for 1 second. The ALP activity of ERE-reporter alone was set at 1.
To investigate the transcriptional regulatory properties of clone 29 protein, we performed co-transfection experiments in which CHO cells were transfected with a clone 29 protein expression vector and/or an estrogen-responsive reporter gene construct. […] CHO-cells were transiently transfected with the ERE-reporter plasmid and the clone 29 protein expression plasmid. […] Alkaline phosphatase activity (ALP) was measured as described and the activity in the absence of ligand (control) was set at 1.

T2 sequence (Q62986 46-530): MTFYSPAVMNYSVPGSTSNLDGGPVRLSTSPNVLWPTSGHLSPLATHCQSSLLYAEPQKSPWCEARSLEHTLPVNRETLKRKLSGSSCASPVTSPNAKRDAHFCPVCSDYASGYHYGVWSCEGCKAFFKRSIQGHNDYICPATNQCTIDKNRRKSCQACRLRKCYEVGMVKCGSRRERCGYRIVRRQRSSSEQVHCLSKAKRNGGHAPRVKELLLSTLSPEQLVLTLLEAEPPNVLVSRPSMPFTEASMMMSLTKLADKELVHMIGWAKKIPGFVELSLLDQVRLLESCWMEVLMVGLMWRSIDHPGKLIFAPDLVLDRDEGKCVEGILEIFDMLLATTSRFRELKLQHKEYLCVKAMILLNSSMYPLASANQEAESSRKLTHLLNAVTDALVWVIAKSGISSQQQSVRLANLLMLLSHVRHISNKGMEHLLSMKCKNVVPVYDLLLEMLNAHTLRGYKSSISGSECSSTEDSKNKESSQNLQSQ
T1 sequence (Q62986 46-530): as above

SMILES | efficient competition with [3H]E2 for binding [2] | stimulation of transcriptional activity of clone 29 protein [3] | times less effective as competitor (compared with unlabelled E2) [2] [times] | other results
C[C@]12CC[C@@H]3c4ccc(O)cc4CC[C@H]3[C@@H]1C[C@@H](I)[C@@H]2O [[^125I]-E2, 16α[^125I]-17β-estradiol] |  |  |  | Kd ([1]; read-out: Kd (Hill-plot)): 0.24 nM; Kd ([1]; read-out: Kd (Scatchard-plot)): 0.42 nM
CC(=O)[C@H]1CC[C@H]2[C@@H]3CCC4=CC(=O)CC[C@]4(C)[C@H]3CC[C@]12C [progesterone] | Neither testosterone, progesterone, corticosterone nor 5α-androstane-3α,17β-diol were efficient competitors | could not stimulate transcriptional activity |  | 
C[C@]12CC[C@H]3[C@@H](CCC4=CC(=O)CC[C@@]43C)[C@@H]1CC[C@@H]2O [testosterone] | Neither testosterone, progesterone, corticosterone nor 5α-androstane-3α,17β-diol were efficient competitors | could not stimulate transcriptional activity |  | 
C[C@]12CC[C@H](O)C[C@@H]1CC[C@@H]1[C@@H]2CC[C@]2(C)[C@@H](O)CC[C@@H]12 [5α-androstane-3β,17β-diol] |  | could stimulate transcriptional activity, albeit at higher concentrations |  | 
C[C@]12C[C@H](O)[C@H]3[C@@H](CCC4=CC(=O)CC[C@@]43C)[C@@H]1CC[C@@H]2C(=O)CO [corticosterone] | Neither testosterone, progesterone, corticosterone nor 5α-androstane-3α,17β-diol were efficient competitors |  |  | 
CCCCN(C)C(=O)CCCCCCCCCC[C@@H]1Cc2cc(O)ccc2[C@H]2CC[C@]3(C)[C@@H](O)CC[C@H]3[C@H]12 [ICI-1624384] |  |  |  | suppression of the constitutive transcriptional activity of clone 29 protein ([3]; no E2 added, not shown): could be suppressed
C[C@]12CC[C@@H]3c4ccc(O)cc4CC[C@H]3[C@@H]1C[C@@H](O)[C@@H]2O [estriol] |  |  | 15 | 
C[C@]12CC[C@@H](O)C[C@@H]1CC[C@@H]1[C@@H]2CC[C@]2(C)[C@@H](O)CC[C@@H]12 [5α-androstane-3α,17β-diol] | Neither testosterone, progesterone, corticosterone nor 5α-androstane-3α,17β-diol were efficient competitors | could not stimulate transcriptional activity | 150 | 
CC/C(=C(/CC)c1ccc(O)cc1)c1ccc(O)cc1 [diethylstilbestrol] |  |  | 5 | 
